Measurements published in patent US20240124503A1, “HETEROAROMATIC PHOSPHONIUM SALTS AND THEIR USE TREATING CANCER” (FLORATEK PHARMA S.A., priority 2021, published 2024).

Key:
[1] = tested on: bile duct PDX; assay: Cell viability, bile duct PDX (panel statement); assay type: cell-based; conditions: summary of Table 3; read-out: IC50, bile duct PDX growth
Experimental: PDX-derived cell cultures were obtained from tumors explanted from mice and isolated by mechanical and enzymatic dissociation. […] Cells were harvested and seeded in 96-wells plates at a density of 1.25 to 5×10^3 cells/well for cytotoxicity assays. Cells were incubated 48 h at 37° C. prior to addition of test molecules and vehicle (DMSO, 0.1%) at desired final concentrations. Cell viability was assessed before drugs' addition (To) and 5 days after test molecules addition by measuring ATP cell content using CellTiter-Glo® Luminescent Cell Viability Assay (Promega) according to the manufacturer's instructions. Luciferase activity was measured on a luminometer (PerkinElmer® EnVision™). Each concentration of compounds was tested in triplicate.
Viability was calculated as a percentage of ATP value compared to vehicle treated controls.
For PDX primary cell cultures, the tumour tissue was washed with PBS containing antibiotic-antimycotic and non-tumour tissue and necrotic tumour tissues were separated. The tumour tissue was transferred to a new dish and cut into 1˜2 mm^3 fragments, resuspended in RPMI-1640 medium and centrifuged at 1,200 rpm for 6 min at room temperature. The pelleted material was resuspended with 15 mL of Tumour Cell Digestion Solution and incubated at 37° C. for 1 hour with agitation. […]

[2] = target: T1, RIOK2 (Homo sapiens, UniProt Q9BVS4); assay: KINOMEscan competition binding, RIOK2
T1 construct: purchased Eurofins (KINOMEscan); host or cells: E. coli BL21-derived host (T7 phage) or HEK-293
T1 sequence (Q9BVS4 whole entry): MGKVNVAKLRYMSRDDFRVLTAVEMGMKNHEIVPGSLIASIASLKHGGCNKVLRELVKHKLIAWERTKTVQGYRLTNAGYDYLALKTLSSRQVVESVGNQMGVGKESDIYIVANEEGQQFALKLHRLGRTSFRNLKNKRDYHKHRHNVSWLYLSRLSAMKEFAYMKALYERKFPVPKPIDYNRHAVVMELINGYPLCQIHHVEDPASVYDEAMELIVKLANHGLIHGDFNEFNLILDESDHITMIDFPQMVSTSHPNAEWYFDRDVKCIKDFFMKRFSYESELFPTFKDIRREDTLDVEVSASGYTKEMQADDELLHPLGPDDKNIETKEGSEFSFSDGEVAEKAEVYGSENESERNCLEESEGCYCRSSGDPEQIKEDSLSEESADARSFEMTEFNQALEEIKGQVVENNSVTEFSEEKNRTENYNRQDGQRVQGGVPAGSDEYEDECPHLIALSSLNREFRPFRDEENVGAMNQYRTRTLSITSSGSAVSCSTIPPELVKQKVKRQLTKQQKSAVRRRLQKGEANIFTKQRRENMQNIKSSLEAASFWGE
Experimental: Selected compounds were screened for kinase inhibition using the KINOMEscan™ assay (Eurofins) which is based on a competition binding assay that quantitatively measures the ability of a compound to compete with an immobilized, active-site directed ligand. The assay was performed by combining three components: DNA-tagged kinase; immobilized ligand; and the test compound. The ability of the test compound to compete with the immobilized ligand was measured via quantitative PCR of the DNA tag.
Kinase-tagged T7 phage strains were prepared in an E. coli host derived from the BL21 strain. E. coli were grown to log-phase and infected with T7 phage and incubated with shaking at 32° C. until lysis. The lysates were centrifuged and filtered to remove cell debris. The remaining kinases were produced in HEK-293 cells and subsequently tagged with DNA for qPCR detection. Streptavidin-coated magnetic beads were treated with biotinylated small molecule ligands for 30 minutes at room temperature to generate affinity resins for kinase assays. […] Kds were determined using an 11-point 3-fold compound dilution series with three DMSO control points. […] The kinase concentration in the eluates was measured by qPCR. […]
Binding constants (Kds) were calculated with a standard dose-response curve using the Hill equation: Response=Background+[Signal−Background/1+(Kd^Hill Slope/Dose^Hill Slope)] […]

## COc1c(O)ccc2c(=O)c(O)c(-c3ccc(CCCC[P+](c4ccccc4)(c4ccccc4)c4ccccc4)cc3)oc12 [SND190, (4-(4-(3,7-Dihydroxy-8-methoxy-4-oxo-4H1-chromen-2-yl)phenyl)butyl)triphenylphosphonium bromide]
[1]
  IC50: < 10000 nM
[2]
  Kd: 710 nM
